*1 amine or outer side, *2 acyl side, *3 side chain or, on linkers, in order; H or OH if unused. Where a SMILES comes first, the peptide text is derived from it. Bridges are numbered along the chain shown (N, C = ends). Roman numbers before positions name the chains, in order. [ ]: non-standard residue; d: D form. The star is where a group is joined. ξ: configuration not given here. TATA = O=C(CC[*:1])N1CN(C(=O)CC[*:2])CN(C(=O)CC[*:3])C1; Dolaproine = CO[C@@H]([C@@H]1CCCN1)[C@@H](C)C(=O)O; X1 = CC[C@H](C)C(C(CC(=O)[*:2])OC)N(C)[*:1]; 1Nal = N[C@@H](Cc1cccc2ccccc12)C(=O)O; X3 = O=C(CCCC(=O)[*:2])NCCC(=O)[*:1]; PABC = O=C(OCc1ccc(N[*:1])cc1)[*:2]; Hyp = O=C(O)[C@@H]1C[C@@H](O)CN1; hArg = N=C(N)NCCCC[C@H](N)C(=O)O; Cit = NC(=O)NCCC[C@H](N)C(=O)O; X2 = CC(N*)[C@@H](O)c1ccccc1; ξNMeV = CNC(C(=O)O)C(C)C; ξV = CC(C)C(N)C(=O)O; Sar = CNCC(=O)O
Experiments:
[1] = system: MDA-MB-468 xenograft; experiment: Example 9.9: in vivo efficacy of BCY8245 alone or with BCY8234 in MDA-MB-468 xenograft (large tumors) in Balb/c nude mice; set-up: species or system Mus Musculus; conditions: for Tumor volume: Group3, 3 mpk, qw
[2] = system: MDA-MB-468 xenograft; experiment: Example 9.4: in vivo efficacy in MDA-MB-468 xenograft in Balb/c nude mice; conditions: for TGI / Tumor volume (TV) / T/C: day 21; for T/C: treated/control group average tumor volume; for Tumor volume trace over time (Day 23 to day 42): dosing suspended from day 21
Procedure: (§5) The major endpoint was to see if the tumor growth could be delayed or mice could be cured. Tumor volume was measured three times weekly in two dimensions using a caliper, and the volume was expressed in mm^3 using the formula: V=0.5 a×b^2 where a and b are the long and short diameters of the tumor, respectively. The tumor size was then used for calculations of T/C value. The T/C value (in percent) is an indication of antitumor effectiveness; T and C are the mean volumes of the treated and control groups, respectively, on a given day. TGI was calculated for each group using the formula: TGI (%)=[1−(Ti−T0)/(Vi−V0)]×100; Ti is the average tumor volume of a treatment group on a given day, T0 is the average tumor volume of the treatment group on the day of treatment start, Vi is the average tumor volume of the vehicle control group on the same day with Ti, and V0 is the average tumor volume of the vehicle group on the day of treatment start.
(§6) A one-way ANOVA was performed to compare tumor volume among groups, and when a significant F-statistics (a ratio of treatment variance to the error variance) was obtained, comparisons between groups were carried out with Games-Howell test. All data were analyzed using GraphPad Prism 5.0. P<0.05 was considered to be statistically significant.
(§7) • Species: Mus Musculus • Strain: Balb/c nude • Age: 6-8 weeks • Sex: female • Body weight: 18-22 g • Number of animals: 41 mice plus spare 3.1.2.
The tumor cells were maintained in Leibovitz's L-15 medium supplemented with 10% heat inactivated fetal bovine serum at 37° C. in an atmosphere of 5% CO2 in air. The tumor cells were routinely subcultured twice weekly. The cells growing in an exponential growth phase were harvested and counted for tumor inoculation.
41 animals were randomized when the average tumor volume reached 196 mm^3.

[3] = system: Panc2.13 xenograft; experiment: Example 9.7: in vivo efficacy in Panc2.13 xenograft in Balb/c nude mice; conditions: for Tumor volume: iv
Procedure: as §5, §6, §7
The Panc2.13 tumor cells will be maintained in RMPI1640 medium supplemented with 15% heat inactivated fetal bovine serum and 10 units/ml human recombinant insulin at 37° C. in an atmosphere of 5% CO2 in air. The tumor cells will be routinely subcultured twice weekly. The cells growing in an exponential growth phase will be harvested and counted for tumor inoculation.
Each mouse was inoculated subcutaneously at the right flank with Panc2.13 tumor cells (5×10^6 with Matrigel (1:1) in 0.2 ml of PBS for tumor development. 41 animals were randomized when the average tumor volume reached 149 mm^3. The test article administration and the animal numbers in each group were shown in the experimental design table.
Tumor growth inhibition rate for Test articles in the Panc2.13 xenograft model was calculated based on tumor volume measurements at day 14 after the start of treatment.

[4] = system: CTG-1171; conditions: qw iv
Text: (§1) To evaluate the antitumor activity of Bicycle Agent in Low Passage Champions TumorGraft Models of Human Breast, Esophageal, and Bladder Cancer in Immunocompromised mice.
(§2) • Species: Mouse • Strain: Athymic Nude-Foxn1nu (Immune-compromised) • Source: Envigo: Indianapolis, Indiana • Gender: Female • Target age at initiation of dosing: At least 6-8 weeks of age • Target weight at initiation of dosing: At least 18 grams • Acclimation period: 3 days Experimental Design
(§3) Pre-study Animals: When sufficient stock animals reach 1.0-1.5 cm^3, tumors will be harvested for re-implantation into pre-study animals. Pre-study animals will be implanted unilaterally on the left flank with tumor fragments harvested from stock animals. Each animal is implanted from a specific passage lot and documented.
(§4) Study Animals: Pre-study tumor volumes are recorded for each experiment beginning seven to ten days after implantation. When tumors reach an average tumor volume of 150-300 mm^3, animals will be matched by tumor volume into treatment or control groups to be used for dosing and dosing initiated on Day 0.

[5] = system: CTG-0896; conditions: qw iv
Text: as §1, §2, §3, §4

[6] = system: CTG-1106; conditions: qw iv
Text: as §1, §2, §3, §4

[7] = system: CTG-1771; conditions: qw iv
Text: as §1, §2, §3, §4

CC[C@H](C)C(C(CC(=O)N1CCC[C@H]1[C@H](OC)[C@@H](C)C(=O)NC(C)[C@@H](O)c1ccccc1)OC)N(C)C(=O)[C@@H](NC(=O)C(C(C)C)N(C)C(=O)OCc1ccc(NC(=O)[C@H](CCCNC(N)=O)NC(=O)C(NC(=O)CCCC(=O)NCCC(=O)N(C)CC(=O)N(C)CC(=O)N(C)CC(=O)N(C)CC(=O)N(C)CC(=O)N(C)CC(=O)N(C)CC(=O)N(C)CC(=O)N(C)CC(=O)N(C)CC(=O)N[C@H]2CSCCC(=O)N3CN4CN(C3)C(=O)CCSC[C@H](NC(=O)[C@@H](CC(=O)O)NC(=O)[C@H](Cc3cccc5ccccc35)NC(=O)[C@@H]3CCCN3C2=O)C(=O)N[C@@H](CCSC)C(=O)N[C@@H](CCCCNC(=N)N)C(=O)N[C@@H](CC(=O)O)C(=O)N[C@@H](Cc2c[nH]c3ccccc23)C(=O)N[C@@H](CO)C(=O)N[C@@H]([C@@H](C)O)C(=O)N2CCC[C@H]2C(=O)N2C[C@H](O)C[C@H]2C(=O)N[C@@H](Cc2c[nH]c3ccccc23)C(=O)N[C@H](C(N)=O)CSCCC4=O)C(C)C)cc1)C(C)C (stereo partly drawn) [BCY8245, MMAE-PABC-Cit-Val-Glutaryl-BCY8234] (I: [Sar][Sar][Sar][Sar][Sar][Sar][Sar][Sar][Sar][Sar]CP[1Nal][dD]CM[hArg]DWSTP[Hyp]WC-NH2 / II: [ξV][Cit][PABC][ξNMeV]V[X1][Dolaproine]-X2; linker I:11-I:15-I:25 via TATA; linker I:N-II:N via X3)
Tumor volume ([1]; day 44): 71 ± 33 mm^3
Tumor volume ([1]; day 48): 80 ± 36 mm^3
Tumor volume ([1]; day 51): 91 ± 43 mm^3
Tumor volume ([1]; day 55): 108 ± 53 mm^3
Tumor volume ([1]; day 56): 125 ± 58 mm^3
tumor response (in words) ([1]; former vehicle group and group 2, 5 mg/kg on PG-D28, following 3 weeks): effective tumor regression
TGI ([2]; 3 mg/kg biw): 169.8%
Tumor volume (TV) ([2]; 3 mg/kg biw): 22 mm^3
TGI ([2]; 3 mg/kg qw): 144.2%
Tumor volume (TV) ([2]; 3 mg/kg qw): 85 mm^3
TGI ([2]; 5 mg/kg qw): 168.4%
Tumor volume (TV) ([2]; 5 mg/kg qw): 29 mm^3
TGI ([2]; 3 mpk, biw, iv): 169.8%
T/C ([2]; 3 mpk, biw, iv): 4.9%
TGI ([2]; 3 mpk, qw, iv): 144.2%
T/C ([2]; 3 mpk, qw, iv): 18.9%
Tumor volume trace over time (Day 23 to day 42) ([2]; 5 mpk, qw, iv, day 23 after the start of treatment): 35 ± 5 mm^3
Tumor volume trace over time (Day 23 to day 42) ([2]; 5 mpk, qw, iv, day 25 after the start of treatment): 48 ± 5 mm^3
Tumor volume trace over time (Day 23 to day 42) ([2]; 5 mpk, qw, iv, day 28 after the start of treatment): 37 ± 7 mm^3
Tumor volume trace over time (Day 23 to day 42) ([2]; 5 mpk, qw, iv, day 32 after the start of treatment): 28 ± 6 mm^3
Tumor volume trace over time (Day 23 to day 42) ([2]; 5 mpk, qw, iv, day 35 after the start of treatment): 24 ± 4 mm^3
Tumor volume trace over time (Day 23 to day 42) ([2]; 5 mpk, qw, iv, day 39 after the start of treatment): 28 ± 6 mm^3
Tumor volume trace over time (Day 23 to day 42) ([2]; 5 mpk, qw, iv, day 42 after the start of treatment): 26 ± 6 mm^3
TGI ([2]; 5 mpk, qw, iv): 168.4%
T/C ([2]; 5 mpk, qw, iv): 6.6%
tumor response (in words) ([2]; mouse, in vivo): causes regression of the tumor
TGI ([3]; 3 mg/kg biw, day 14): 79.1%
Tumor volume (TV) ([3]; 3 mg/kg biw, day 14): 231 mm^3
TGI ([3]; 3 mg/kg qw, day 14): 69.2%
Tumor volume (TV) ([3]; 3 mg/kg qw, day 14): 271 mm^3
TGI ([3]; 5 mg/kg qw, day 14): 77.5%
Tumor volume (TV) ([3]; 5 mg/kg qw, day 14): 238 mm^3
Tumor volume ([3]; 3 mpk, biw, day 0 after the start of treatment): 148 mm^3
Tumor volume ([3]; 3 mpk, biw, day 2): 170 mm^3
Tumor volume ([3]; 3 mpk, biw, day 4): 204 mm^3
Tumor volume ([3]; 3 mpk, biw, day 7): 216 mm^3
Tumor volume ([3]; 3 mpk, biw, day 9): 236 mm^3
Tumor volume ([3]; 3 mpk, biw, day 11): 241 mm^3
Tumor volume ([3]; 3 mpk, biw, day 14): 231 mm^3
T/C ([3]; 3 mpk, biw, day 14): 42.3%
TGI ([3]; 3 mpk, biw, day 14): 79.1%
Tumor Volume (Mean ± SEM) ([3]; 3 mpk, biw, day 14): 231 ± 57 mm^3
Tumor volume ([3]; 3 mpk, qw, day 0 after the start of treatment): 149 mm^3
Tumor volume ([3]; 3 mpk, qw, day 2): 160 mm^3
Tumor volume ([3]; 3 mpk, qw, day 4): 191 mm^3
Tumor volume ([3]; 3 mpk, qw, day 7): 215 mm^3
Tumor volume ([3]; 3 mpk, qw, day 9): 242 mm^3
Tumor volume ([3]; 3 mpk, qw, day 11): 259 mm^3
Tumor volume ([3]; 3 mpk, qw, day 14): 271 mm^3
T/C ([3]; 3 mpk, qw, day 14): 49.6%
TGI ([3]; 3 mpk, qw, day 14): 69.2%
Tumor Volume (Mean ± SEM) ([3]; 3 mpk, qw, day 14): 271 ± 54 mm^3
Tumor volume ([3]; 5 mpk, qw, day 0 after the start of treatment): 149 mm^3
Tumor volume ([3]; 5 mpk, qw, day 2): 180 mm^3
Tumor volume ([3]; 5 mpk, qw, day 4): 231 mm^3
Tumor volume ([3]; 5 mpk, qw, day 7): 242 mm^3
Tumor volume ([3]; 5 mpk, qw, day 9): 248 mm^3
Tumor volume ([3]; 5 mpk, qw, day 11): 231 mm^3
Tumor volume ([3]; 5 mpk, qw, day 14): 238 mm^3
T/C ([3]; 5 mpk, qw, day 14): 43.6%
TGI ([3]; 5 mpk, qw, day 14): 77.5%
Tumor Volume (Mean ± SEM) ([3]; 5 mpk, qw, day 14): 238 ± 40 mm^3
tumor response (in words) ([3]; mouse, in vivo): tumor growth is restrained by BCY8245 but the tumor does not undergo regression
efficacy (in words) [4]: excellent efficacy evoking tumor regression
efficacy (in words) [5]: excellent efficacy evoking tumor regression
efficacy (in words) [6]: excellent efficacy evoking tumor regression
efficacy (in words) [7]: excellent efficacy evoking tumor regression

Source: patent publication US12459974B2, “Bicyclic peptide ligands specific for Nectin-4” (priority 2018, dated 2025)
